{"source": "patent US8592477B2", "about": "“Polymorphic form of rotigotine and process for production” (UCB Pharma GmbH, priority 2007, dated 2013)", "key": {"[1]": {"assay": "Thermodynamic stability from DSC data (melting point, enthalpy of fusion, Burger-Ramberger rules)", "type": "physicochemical", "details": "heating rate 10° C./min, 30° C. to 140° C., all considered temperatures", "procedure": "Further, differential scanning calorimetry (DSC) data reveal the difference between the two polymorphic forms of Rotigotine (FIGS. 7 and 8). […] Therefore, the two polymorphs of Rotigotine appear to be monotropically related.\nThermal behavior investigations of Rotigotine of polymorphic form (I) (batch 1608726) and of polymorphic form (II) (batch 7769396) were performed on a Mettler Toledo DSC system and on a TA instrument (Q-1000). The analyses were carried out with a heating rate of 10° C./min in pierced aluminum crucibles in a temperature range from 30° C. to 140° C.\nIn sum, the two polymorphic forms of Rotigotine can be differentiated by their respective melting point and their respective enthalpy of fusion. […] Therefore, the two polymorphs of Rotigotine are most probably monotropically related."}, "[2]": {"assay": "Solubility in EtOH at room temperature", "type": "physicochemical", "details": "form (II) vs form (I)"}}, "data": [{"compound": "CCCN(CCc1cccs1)[C@H]1CCc2c(O)cccc2C1", "note": "[polymorphic form (II), (−)-5,6,7,8-tetrahydro-6-[propyl-[2-(2-thienyl)ethyl]-amino]-1-naphthalenol]", "values": [{"measurement": "thermodynamic stability relative to the other polymorph", "setting": "[1]", "value": "thermodynamically more stable than polymorphic form (I)"}, {"measurement": "solubility in EtOH relative to polymorphic form (I)", "setting": "[2]", "value": "at least five times lower"}]}]}
